Measurements: ChEMBL document CHEMBL1150349, “Design and synthesis of hydroxy-alkynoic acids and their methyl esters as novel activators of BK channels” (Bioorg Med Chem Lett, 2008)
Calls of active or inactive are those of the source. The rule behind the calls is not given here.

Molecular target: Calcium-activated potassium channel subunit alpha-1 (Rattus norvegicus) (UniProt Q62976)
Assay: Activation of BK channel in rat cerebral myocytes by voltage patch clamp method
Format: cell-based

Calcium-activated potassium channel subunit alpha-1 (Rattus norvegicus), sequence (Q62976 whole entry): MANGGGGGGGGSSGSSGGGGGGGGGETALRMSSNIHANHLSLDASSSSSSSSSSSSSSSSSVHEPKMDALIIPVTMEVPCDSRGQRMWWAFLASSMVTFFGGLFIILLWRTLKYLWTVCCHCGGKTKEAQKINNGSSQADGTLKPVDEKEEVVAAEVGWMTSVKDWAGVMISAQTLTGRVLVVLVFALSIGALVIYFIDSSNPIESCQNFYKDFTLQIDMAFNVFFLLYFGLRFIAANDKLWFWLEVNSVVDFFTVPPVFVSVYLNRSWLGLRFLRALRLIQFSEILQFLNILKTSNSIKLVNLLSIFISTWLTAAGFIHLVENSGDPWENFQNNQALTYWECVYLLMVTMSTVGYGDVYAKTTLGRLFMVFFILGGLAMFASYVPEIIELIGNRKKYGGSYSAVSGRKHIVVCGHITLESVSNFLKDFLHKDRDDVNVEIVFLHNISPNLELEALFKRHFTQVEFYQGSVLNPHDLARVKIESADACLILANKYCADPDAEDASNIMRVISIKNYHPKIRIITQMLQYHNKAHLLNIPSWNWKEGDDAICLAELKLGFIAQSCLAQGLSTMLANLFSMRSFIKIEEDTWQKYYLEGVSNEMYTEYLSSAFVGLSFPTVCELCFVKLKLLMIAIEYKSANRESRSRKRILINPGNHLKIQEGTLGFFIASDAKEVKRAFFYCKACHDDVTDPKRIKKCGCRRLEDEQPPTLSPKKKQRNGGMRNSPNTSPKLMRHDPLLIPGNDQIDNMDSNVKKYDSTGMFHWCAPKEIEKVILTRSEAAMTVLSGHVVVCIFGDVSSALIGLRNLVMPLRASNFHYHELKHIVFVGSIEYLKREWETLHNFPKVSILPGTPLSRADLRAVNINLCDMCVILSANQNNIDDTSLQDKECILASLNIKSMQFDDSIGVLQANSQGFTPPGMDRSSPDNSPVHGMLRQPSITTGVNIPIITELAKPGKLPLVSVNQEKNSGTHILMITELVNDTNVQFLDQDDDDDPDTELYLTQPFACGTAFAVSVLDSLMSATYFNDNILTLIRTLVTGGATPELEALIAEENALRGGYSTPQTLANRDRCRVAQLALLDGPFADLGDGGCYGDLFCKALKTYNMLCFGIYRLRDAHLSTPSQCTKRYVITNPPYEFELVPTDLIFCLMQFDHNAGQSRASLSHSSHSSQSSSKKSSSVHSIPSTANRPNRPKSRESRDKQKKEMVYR

Row | Structure (SMILES) | Activity
1 | O=C(O)CCCCCC#CCCCO | Active
2 | COC(=O)CCCC#CCCO | inactive
3 | O=C(O)CCCCCC#CCCCCO | Active

Further lines, results first:

Row | Activity | Structure (SMILES)
4 | inactive | COC(=O)CCCCCCCCCC#CCCCCO
5 | Active | COC(=O)CCCCC#CCCCO
6 | inactive | COC(=O)CCCCCCCC#CCCCCO
